Measurements taken from patent publication US20030152512A1, “Imaging thrombus with glycoprotein llb/llla antagonists” (priority 2001, published 2003).
Non-standard residues stand in square brackets, D forms with d. Residues, ends and D or L forms follow the SMILES beside them. *: point of attachment. X1 = O=C(c1ccc(NN=Cc2ccccc2S(=O)(=O)O)nc1)*; NMeR = CN[C@@H](CCCNC(=N)N)C(=O)O; HYNIC = NNc1ccc(C(=O)*)cn1; 3Amb = NCc1cccc(C(=O)O)c1

Assays:
Platelet GPIIb/IIIa = target: T1, Platelet GPIIb/IIIa (Canis lupus familiaris, UniProt A0A8I3N5G5+A0A8I3PMU9); experiment: Platelet GPIIb/IIIa binding assay (inhibition of 125I-fibrinogen binding to activated platelets); settings: reagents (compounds of Examples 1-3); activated canine platelets
T1 construct: from tissue
T1 sequence (A0A8I3N5G5 1-1047): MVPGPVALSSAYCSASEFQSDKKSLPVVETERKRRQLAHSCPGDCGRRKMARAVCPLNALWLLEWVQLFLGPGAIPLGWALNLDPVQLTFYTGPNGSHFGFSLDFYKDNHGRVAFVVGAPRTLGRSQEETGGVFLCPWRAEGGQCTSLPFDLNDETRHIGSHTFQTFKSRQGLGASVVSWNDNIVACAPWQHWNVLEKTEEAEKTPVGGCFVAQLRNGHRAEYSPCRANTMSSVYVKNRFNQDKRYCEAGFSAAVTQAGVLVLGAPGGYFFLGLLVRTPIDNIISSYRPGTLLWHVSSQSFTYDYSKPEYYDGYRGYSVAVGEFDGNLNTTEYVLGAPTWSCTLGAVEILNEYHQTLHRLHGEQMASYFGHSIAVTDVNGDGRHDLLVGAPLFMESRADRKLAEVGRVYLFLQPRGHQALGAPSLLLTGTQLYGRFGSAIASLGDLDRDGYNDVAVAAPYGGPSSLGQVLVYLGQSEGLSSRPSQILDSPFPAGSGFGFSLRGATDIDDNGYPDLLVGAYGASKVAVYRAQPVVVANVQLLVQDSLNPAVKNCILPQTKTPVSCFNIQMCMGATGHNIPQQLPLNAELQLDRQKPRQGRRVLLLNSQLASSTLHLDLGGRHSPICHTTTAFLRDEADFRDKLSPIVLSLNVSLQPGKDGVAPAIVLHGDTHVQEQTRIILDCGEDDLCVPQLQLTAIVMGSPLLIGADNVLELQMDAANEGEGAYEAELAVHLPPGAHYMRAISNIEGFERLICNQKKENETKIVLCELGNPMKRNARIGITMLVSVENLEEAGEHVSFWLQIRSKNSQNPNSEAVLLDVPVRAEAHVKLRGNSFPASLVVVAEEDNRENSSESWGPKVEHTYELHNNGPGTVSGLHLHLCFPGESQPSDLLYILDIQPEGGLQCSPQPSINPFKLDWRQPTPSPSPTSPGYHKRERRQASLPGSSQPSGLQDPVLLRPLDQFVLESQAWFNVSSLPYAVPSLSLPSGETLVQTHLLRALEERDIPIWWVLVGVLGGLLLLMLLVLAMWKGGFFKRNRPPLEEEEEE
T1 sequence (A0A8I3PMU9 1-919): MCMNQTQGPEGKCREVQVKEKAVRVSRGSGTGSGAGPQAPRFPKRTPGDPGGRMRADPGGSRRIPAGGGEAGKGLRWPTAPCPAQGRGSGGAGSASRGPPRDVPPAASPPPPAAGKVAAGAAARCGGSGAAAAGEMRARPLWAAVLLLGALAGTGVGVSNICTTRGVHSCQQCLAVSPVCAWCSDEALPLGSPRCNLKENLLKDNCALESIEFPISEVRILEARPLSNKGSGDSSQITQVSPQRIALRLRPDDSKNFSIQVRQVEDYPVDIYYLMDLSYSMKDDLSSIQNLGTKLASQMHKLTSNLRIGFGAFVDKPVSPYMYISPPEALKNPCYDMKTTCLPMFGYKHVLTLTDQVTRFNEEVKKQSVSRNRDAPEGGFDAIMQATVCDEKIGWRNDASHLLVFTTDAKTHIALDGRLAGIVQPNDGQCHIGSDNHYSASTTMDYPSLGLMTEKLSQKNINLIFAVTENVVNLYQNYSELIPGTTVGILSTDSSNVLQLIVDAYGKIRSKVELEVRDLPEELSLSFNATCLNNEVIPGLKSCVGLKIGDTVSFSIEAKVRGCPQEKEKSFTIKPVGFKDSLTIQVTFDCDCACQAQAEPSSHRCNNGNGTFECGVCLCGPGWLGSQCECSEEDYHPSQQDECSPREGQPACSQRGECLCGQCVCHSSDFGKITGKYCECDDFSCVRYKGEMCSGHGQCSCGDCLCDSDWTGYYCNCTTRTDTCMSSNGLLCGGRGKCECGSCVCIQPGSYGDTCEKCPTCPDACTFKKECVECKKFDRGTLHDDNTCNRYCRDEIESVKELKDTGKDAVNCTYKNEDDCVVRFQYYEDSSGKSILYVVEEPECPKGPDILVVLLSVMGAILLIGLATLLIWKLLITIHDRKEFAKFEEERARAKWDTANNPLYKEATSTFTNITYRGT
Protocol: Platelet GPIIb/IIIa Binding Assay:
During isolation, platelets were rendered quiescent by the addition of aspirin and when appropriate, primed by the addition of PGE 1. Experimentation was completed in a microtiter format with final concentrations between 1 and 2×10^7 platelets/well. Platelets were activated by the addition of CaCl2 (2 mM) and thrombin (0.2 U/mL) while non-activated platelets received buffer. Hirudin (0.5 U/mL) was added to stop the activation reaction.

venous thrombus = experiment: Thrombus imaging in canine deep vein thrombosis (DVT) model, gamma scintigraphy (camera ROI); assay type: in vivo, dog; settings: for efficacy as thrombus imaging agent (in words): dog DVT model; for Thrombus to Blood Ratio in DVT Model (Camera ROI) / Thrombus to Muscle Ratio in DVT Model (Camera ROI): dog
Protocol: (§1) Canine Deep Vein Thrombosis Model: This model incorporates the triad of events (hypercoagulatible state, period of stasis, low shear environment) essential for the formation of a venous fibrin-rich actively growing thrombus. The procedure was as follows: Adult mongrel dogs of either sex (9-13 kg) were anesthetized with pentobarbital sodium (35 mg/kg,i.v.) and ventilated with room air via an endotracheal tube (12 strokes/min, 25 ml/kg). For arterial pressure determination, the right femoral artery was cannulated with a saline-filled polyethylene catheter (PE-240) and connected to a Statham pressure transducer (P23ID; Oxnard, Calif.). Mean arterial blood pressure was determined via damping the pulsatile pressure signal. Heart rate was monitored using a cardiotachometer (Biotach, Grass Quincy, Mass.) triggered from a lead II electrocardiogram generated by limb leads. The right femoral vein was cannulated (PE-240) for drug administration. A 5 cm segment of both jugular veins was isolated, freed from fascia and circumscribed with silk suture. A microthermister probe was placed on the vessel which serves as an indirect measure of venous flow. A balloon embolectomy catheter was utilized to induce the 15 min period of stasis during which time a hypercoagulatible state was then induced using 5 U thrombin (American Diagnosticia, Greenwich Conn.) administered into the occluded segment. Fifteen minutes later, flow was reestablished by deflating the balloon. The radiopharmaceutical was infused during the first 5 minutes of reflow and the rate of incorporation monitored using gamma scintigraphy.

[1] = Blood clearance in canine deep vein thrombosis (DVT) model; settings: both, mongrel, dog, iv
Protocol: as §1

| Structure (SMILES) | IC50 (Platelet GPIIb/IIIa) [nM] | efficacy as thrombus imaging agent (in words) (venous thrombus) | Thrombus to Blood Ratio in DVT Model (Camera ROI) (venous thrombus; time 30 min) | Thrombus to Muscle Ratio in DVT Model (Camera ROI) (venous thrombus; time 30 min) | Thrombus to Blood Ratio in DVT Model (Camera ROI) (venous thrombus; time 120 min) | Thrombus to Muscle Ratio in DVT Model (Camera ROI) (venous thrombus; time 120 min) | tissue uptake at 0 h [1] [%ID/g] | tissue uptake at 0.25 h [1] [%ID/g] | tissue uptake at 0.5 h [1] [%ID/g] | tissue uptake at 1 h [1] [%ID/g] | tissue uptake at 1.5 h [1] [%ID/g] | tissue uptake at 2 h [1] [%ID/g] | also measured |
| --- | --- | --- | --- | --- | --- | --- | --- | --- | --- | --- | --- | --- | --- |
| N=C(N)c1ccc(C2=NOC(CC(=O)NCC(NC(=O)c3ccc(NN=Cc4ccccc4S(=O)(=O)O)nc3)C(=O)O)C2)cc1 (stereo not drawn) [Example 3] | 66 | – | – | – | – | – | – | – | – | – | – | – | – |
| CC(C)[C@H]1NC(=O)c2cc(cc(CNC(=O)[C@H](CC(=O)O)NC(=O)c3ccc(NN)nc3)c2)CNC(=O)[C@H](CC(=O)O)NC(=O)CNC(=O)[C@H](CCCNC(=N)N)N(C)C1=O (99mTc complex, metal not drawn) [Example 4] | – | effective thrombus imaging agents | 2.29 ± 0.60 | 4.31 ± 1.33 | 3.36 ± 0.99 | 4.70 ± 1.05 | 0.141 | 0.07 | 0.067 | 0.053 | 0.046 | 0.045 | Thrombus to Blood Ratio in DVT Model (Camera ROI) (venous thrombus; time 15 min, listed as Ex. 4): 2.00 ± 0.25; Thrombus to Muscle Ratio in DVT Model (Camera ROI) (venous thrombus; time 15 min, listed as Ex. 4): 3.18 ± 0.45; Thrombus to Blood Ratio in DVT Model (Camera ROI) (venous thrombus; time 60 min, listed as Ex. 4): 2.86 ± 0.31; Thrombus to Muscle Ratio in DVT Model (Camera ROI) (venous thrombus; time 60 min, listed as Ex. 4): 4.31 ± 0.79 |
| CN1C(=O)[C@@H](CCCCNC(=O)c2ccc(NN)nc2)NC(=O)c2cccc(c2)CNC(=O)[C@H](CC(=O)O)NC(=O)CNC(=O)[C@@H]1CCCNC(=N)N (99mTc complex, metal not drawn) [Example 5] (cyclo([NMeR]GD[3Amb][dK](HYNIC))) | – | effective thrombus imaging agents | 1.86 ± 0.23 | 2.27 ± 0.29 | 2.57 ± 0.25 | 3.34 ± 0.18 | 0.11 ± 0.01 | 0.039 ± 0.003 | 0.027 ± 0.003 | 0.021 ± 0.002 | 0.018 ± 0.002 | 0.017 ± 0.002 | Thrombus to Blood Ratio in DVT Model (Camera ROI) (venous thrombus; time 15 min, listed as Ex. 5): 1.64 ± 0.21; Thrombus to Muscle Ratio in DVT Model (Camera ROI) (venous thrombus; time 15 min, listed as Ex. 5): 2.12 ± 0.29; Thrombus to Blood Ratio in DVT Model (Camera ROI) (venous thrombus; time 60 min, listed as Ex. 5): 2.13 ± 0.23; Thrombus to Muscle Ratio in DVT Model (Camera ROI) (venous thrombus; time 60 min, listed as Ex. 5): 2.66 ± 0.29 |
| CC(C)[C@H]1NC(=O)c2cc(cc(NC(=O)CCCCCNC(=O)c3ccc(NN)nc3)c2)CNC(=O)[C@H](CC(=O)O)NC(=O)CNC(=O)[C@H](CCCNC(=N)N)N(C)C1=O [Example 7, ^99mTc(cyclo(D-Val-NmeArg-Gly-Asp-Mamb(hydrazino-nicotinyl-5-Aca)))(tricine)(TPPTS), metal not drawn] | – | effective thrombus imaging agents | 3.10 ± 0.42 | 4.80 ± 0.38 | 6.60 ± 1.42 | 9.90 ± 2.64 | 0.119 ± 0.003 | 0.08 ± 0.003 | 0.066 ± 0.004 | 0.059 ± 0.001 | 0.05 ± 0.002 | 0.049 ± 0.001 | Thrombus to Blood Ratio in DVT Model (Camera ROI) (venous thrombus; time 15 min, listed as Ex. 7): 2.10 ± 0.10; Thrombus to Muscle Ratio in DVT Model (Camera ROI) (venous thrombus; time 15 min, listed as Ex. 7): 3.40 ± 0.30; Thrombus to Blood Ratio in DVT Model (Camera ROI) (venous thrombus; time 60 min, listed as Ex. 7): 5.30 ± 0.91; Thrombus to Muscle Ratio in DVT Model (Camera ROI) (venous thrombus; time 60 min, listed as Ex. 7): 7.00 ± 1.40 |
| CN1C(=O)[C@@H](CCCCNC(=O)c2ccc(NN=Cc3ccccc3S(=O)(=O)O)nc2)NC(=O)c2cccc(c2)CNC(=O)[C@H](CC(=O)O)NC(=O)CNC(=O)[C@@H]1CCCNC(=N)N [Example 2, cyclo{N-Me-Arg-Gly-Asp-Mamb-D-Lys([2-[[[5-[carbonyl]-2-pyridinyl]hydrazono]methyl]-benzenesulfonic acid])}] (cyclo([NMeR]GD[3Amb][dK](X1))) | 14 | – | – | – | – | – | – | – | – | – | – | – | – |
| CC(C)[C@H]1NC(=O)c2cc(cc(CNC(=O)[C@H](CC(=O)O)NC(=O)c3ccc(N/N=C/c4ccccc4S(=O)(=O)O)nc3)c2)CNC(=O)[C@H](CC(=O)O)NC(=O)CNC(=O)[C@H](CCCNC(=N)N)N(C)C1=O [Example 1] | 7 | – | – | – | – | – | – | – | – | – | – | – | – |
